Here are results for two molecules from US20060019335A1, “Compositions and methods to promote c-IAP autodegradation” (priority 2004, published 2006).

Residues, ends and D or L forms follow the SMILES beside them. *: point of attachment. Cbz = O=C(OCc1ccccc1)*

The test system of test [1] is c-IAP1. The experiment in a line: Co-transfection of HeLa cells with c-IAP1 and Smac plasmids, Western blot. It is filed as cell-based, human. To be noted: MG132 added to the culture medium. The procedure: (§1) Transfection of cultured Cells—HeLa cells were grown in DMEM supplemented with 10% fetal bovine serum. Cells were seeded onto 6-well plates the day before transfection and transfected at 70% confluence by using Lipofectin combined with Plus reagent (Invitrogen) according to the manufacture's protocols. The IAP expression plasmids (3 μg each for c-IAP1, c-IAP2 and XIAP, and 250 ng each for Livin αand Livin β) together with 2.5 μg of Smac expression plasmids or pcDNA3.1(−) blank plasmid were used for single-well transfection in the absence of antibiotics. The cells were harvested 12 hours after the transfection and lysed with 0.5% CHAPS in 20 mM HEPES (pH 7.4), 10 mM KCl, 1 mM MgCl2 and 1 mM DTT. The lysates were centrifuged and the protein concentrations of the supernatants were quantified by the modified Bradford method (36).
(§2) Western Blot analysis—Proteins were resolved by SDS-PAGE and transferred to nitrocellulose filters. The filters were blocked with 5% milk and probed with antibodies as indicated. The signals were visualized with the enhanced chemiluminescence method.
(§3) To investigate the effect of Smac polypeptide on IAP protein levels, HeLa cells were transfected with the expression vectors for Smac and various IAPs. Briefly, HeLa cells were either transfected with IAP alone (Lane 2, 4 and 6), or together with Smac polypeptide (Lane 3, 5 and 7), or with Smac polypeptide alone (Lane 1). Equal amounts of cell lysates (7 μg) were immunoblotted with either the HRP-conjugated anti-FLAG antibody (shown in the top panel) in order to detect N-terminal 3×FLAG tagged IAPs, or with the anti-c-Myc antibody (bottom panel) to detect C-terminal c-Myc tagged Smac. The ubiquitin fusion technique was used to secure the production of mature Smac protein with the expected N-terminal AVPI motif (6, 37).
(§4) Because it is known that the His^588 residue in the RING finger domain is important for the IAP E3 activity (22), this residue was mutated to test whether Smac stimulated the ubiquitylation-mediated degradation of both c-IAP1 and c-IAP2. In each case, His^588 in c-IAP1 and His^574 in c-IAP2 was mutated to Ala (H588A mutant and H574A mutant, respectively) and the results are depicted in FIGS. 2A and 2B. The c-IAP1 WT or H588A mutant plasmids together with either Smac WT or Smac ΔA mutant, or with pcDNA3.1 (−) blank plasmid were co-transfected into HeLa cells (FIG. 2A). The c-IAP2 WT or H574A mutant plasmids together with either Smac WT or Smac ΔA mutant, or with pcDNA3.1 (−) blank plasmid were co-transfected into HeLa cells (FIG. 2B). As controls, HeLa cells were also transfected with either Smac WT or ΔA plasmids together with the blank p3×FLAG-CMV-7 plasmid. The transfected cells were cultivated either in the absence (see lanes 1-7 of FIGS. 2A and 2B) or in the presence (see lanes 8-14 of FIGS. 2A and 2B) of MG132. Equal amounts of soluble proteins (7 μg) from the transfected cells were immunoblotted with either the HRP-conjugated anti-FLAG antibody (see top panel of FIGS. 2A and 2B) to detect N-terminal 3×FLAG tagged IAPs, or with the anti-c-Myc antibody (see middle panel of FIGS. 2A and 2B) to detect C-terminal c-Myc tagged Smac. The anti-Actin immunoblotting results were to show equal protein loading (see bottom panel of FIGS. 2A and 2B).

Test [2] concerns the target T1, c-IAP2 (Homo sapiens, UniProt Q13489).
T1 construct: produced not only the expected full length c-IAP1 or c-IAP2; expressed in transfected cells; host or cells: HeLa
The experiment in a line: Co-transfection of HeLa cells with c-IAP2 and Smac plasmids, Western blot. It is filed as cell-based. To be noted: MG132 added. The protocol:
as §1, §2, §3, §4

In test [3] the target is XIAP (Homo sapiens, UniProt P98170). Put plainly: Co-transfection of HeLa cells with XIAP and Smac plasmids, Western blot. It is filed as cell-based. Set-up: expressed in transfected cells; host or cells: HeLa. To be noted: presence of MG132. The protocol:
as §1, §2, §3
It is known that XIAP is ubiquitylated by its own E3 activity when expressed in HEK 293T cells and that this auto-ubiquitylation and subsequent degradation is stimulated by Reaper (26). In the current study, XIAP transiently expressed in HeLa cells was ubiquitylated as well; however, mono-ubiquitylation rather than poly-ubiquitylation of XIAP was the major product (see FIG. 3A). Briefly, XIAP WT or H467A mutant plasmids together with either Smac WT or ΔA, or with pcDNA3.1(−) blank plasmid, were co-transfected into the HeLa cells. As controls, HeLa cells were also transfected with either Smac WT or ΔA plasmids together with the blank p3×FLAG-CMV-7 plasmid. The transfected cells were cultivated either in the absence (see lanes 1-7 of FIG. 3A) or in the presence (see lanes 8-14 of FIG. 3A) of MG132. Equal amounts of soluble proteins (7 μg) from the transfected cells were immunoblotted with either the HRP-conjugated anti-FLAG antibody (see top panel of FIG. 3A) to detect N-terminal 3×FLAG tagged IAPs, or with the anti-c-Myc antibody (see middle panel of FIG. 3A) to detect Smac. The anti-Actin immunoblotting results were to show equal protein loading (see bottom panel of FIG. 3A).

Test [4] deals with c-IAP1. The experiment in a line: In vitro ubiquitylation assay of purified c-IAP1 and BIR deletion mutants. It is filed as biochemical, human. The procedure:
In vitro ubiquitylation assays—In vitro ubiquitylation assays were carried out as previously described (29). IAP proteins (200 nM) were incubated with or without Smac polypeptide for 2 hours at 30° C. in a reaction system containing 50 mM Tris-HCl (pH 7.5), 50 mM NaCl, 2 mM Mg-ATP, 20 μM mammalian ubiquitin, 100 nM rabbit ubiquitin-activating enzyme (E1) and 400 nM of recombinant human ubiquitin-conjugating enzymes (E2). The reactions were stopped by adding equal volumes of 2×SDS sample loading buffer followed by Western Blot analysis.
To determine whether Smac promotes auto-ubiquitylation of XIAP, purified XIAP (without tag) was incubated for 2 hours at 30° C. either with or without different concentrations of Smac or with Smac ΔA in the reconstituted ubiquitylation reaction system (Ub Mix) consisting of 50 mM Tris-HCl (pH 7.5), 50 mM NaCl, 2 mM Mg-ATP, 20 μM mammalian ubiquitin, 100 nM rabbit ubiquitin-activating enzyme (E1) and 400 nM UbCH6 (E2). The reactions were stopped by adding equal volumes of 2×SDS sample loading buffer and the products were subjected to SDS-PAGE followed by immunoblotting with anti-XIAP antibody. The purified XIAP was active in directing poly-ubiquitylation. But the auto-ubiquitylation of XIAP was not enhanced by Smac.
Smac ΔA and the peptide Smac-7M were used as negative controls. The reactions were stopped by adding equal volumes of 2×SDS sample loading buffer and the products were subjected to SDS-PAGE followed by immunoblotting with anti-c-IAP1 antibody. The arrows indicate the unmodified full length or deleted c-IAP1.
To verify this, stepwise deletion was performed of the first BIR (ΔBIR1, residues 1-161), the first two BIRs (ΔBIR1-2, residues 1-265), or all the three BIR domains (ΔBIR1-2-3, residues 1-339) from c-IAP1. All these mutants and the full-length wild type c-IAP1 were purified as a non-tagged form by using the pTYB11 Intein system (New England Biolabs).
Target sequence in this assay (Q13490 162-618): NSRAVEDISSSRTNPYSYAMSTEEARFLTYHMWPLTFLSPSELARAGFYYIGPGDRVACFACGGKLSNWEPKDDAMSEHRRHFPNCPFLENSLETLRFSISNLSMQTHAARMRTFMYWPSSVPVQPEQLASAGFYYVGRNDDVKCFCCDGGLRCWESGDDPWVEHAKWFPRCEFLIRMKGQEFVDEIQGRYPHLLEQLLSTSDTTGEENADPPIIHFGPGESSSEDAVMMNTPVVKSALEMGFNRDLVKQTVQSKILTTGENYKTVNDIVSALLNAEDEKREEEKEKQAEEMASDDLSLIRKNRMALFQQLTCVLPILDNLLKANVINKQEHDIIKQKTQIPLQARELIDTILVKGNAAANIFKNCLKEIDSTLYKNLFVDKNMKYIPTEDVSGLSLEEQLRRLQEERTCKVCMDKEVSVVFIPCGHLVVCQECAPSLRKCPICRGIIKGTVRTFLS

T1 sequence (Q13489 whole entry): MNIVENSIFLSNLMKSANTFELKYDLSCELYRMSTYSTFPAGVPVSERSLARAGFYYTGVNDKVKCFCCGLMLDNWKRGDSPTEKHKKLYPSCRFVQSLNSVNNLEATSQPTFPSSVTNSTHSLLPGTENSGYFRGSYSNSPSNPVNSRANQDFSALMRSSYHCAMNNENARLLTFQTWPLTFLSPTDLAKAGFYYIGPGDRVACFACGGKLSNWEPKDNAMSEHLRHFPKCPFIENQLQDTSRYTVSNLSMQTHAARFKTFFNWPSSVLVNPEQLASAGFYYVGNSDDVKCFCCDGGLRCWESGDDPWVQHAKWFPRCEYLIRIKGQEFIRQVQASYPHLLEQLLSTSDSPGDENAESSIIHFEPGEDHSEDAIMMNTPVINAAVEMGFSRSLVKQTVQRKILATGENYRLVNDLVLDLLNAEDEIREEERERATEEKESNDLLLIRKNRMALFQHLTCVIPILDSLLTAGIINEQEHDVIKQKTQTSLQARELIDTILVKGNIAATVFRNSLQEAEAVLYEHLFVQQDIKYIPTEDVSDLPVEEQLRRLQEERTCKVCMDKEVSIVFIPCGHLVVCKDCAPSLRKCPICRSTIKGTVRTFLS
Chain of XIAP (P98170 whole entry): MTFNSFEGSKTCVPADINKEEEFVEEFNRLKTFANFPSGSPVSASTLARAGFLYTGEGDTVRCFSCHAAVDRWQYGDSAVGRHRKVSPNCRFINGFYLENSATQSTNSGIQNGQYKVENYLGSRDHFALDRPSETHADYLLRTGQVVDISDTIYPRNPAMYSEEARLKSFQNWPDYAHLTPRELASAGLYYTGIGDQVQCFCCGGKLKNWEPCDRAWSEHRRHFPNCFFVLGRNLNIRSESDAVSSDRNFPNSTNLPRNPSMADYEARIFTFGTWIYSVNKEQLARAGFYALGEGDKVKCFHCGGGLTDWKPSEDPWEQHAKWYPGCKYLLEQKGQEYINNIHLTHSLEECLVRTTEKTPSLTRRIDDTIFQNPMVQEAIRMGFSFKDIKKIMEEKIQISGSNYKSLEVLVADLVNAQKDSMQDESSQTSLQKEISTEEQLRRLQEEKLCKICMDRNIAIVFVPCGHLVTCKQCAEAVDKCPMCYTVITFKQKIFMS

Consider `CC(C)C[C@@H](C=O)NC(=O)[C@H](CC(C)C)NC(=O)[C@H](CC(C)C)NC(=O)OCc1ccccc1` [MG132, reference compound] (Cbz-Leu-Leu-Leu-aldehyde), for which, in test [1], the “H588A c-IAP1 protein level” value is “did not cause a significant increase” and the “amount of wild type c-IAP1” value is reported as “dramatically increased”. In test [2], the “level of c-IAP2” value is “did not show such a significant change”. Further, the “poly-ubiquitylated XIAP products” value in test [3] is on record as “more poly-ubiquitylated XIAP products could be detected”.

Regarding “AVPIAQ (listed as Homo sapiens) [Smac-6]”, the “stimulation of E3 activity of c-IAP compared with full length Smac” value in test [4] (as illustrated in the Examples) is reported as “as effectively as the full length Smac polypeptide”. In addition, the “E3 activity of c-IAP1ΔBIR1” value in test [4] (peptides and controls, FIG. 7B) is given as “effectively stimulated E3 activity”.
